The text below walks through data of EP0300423A2, “Cephalosporin compound, method of its production and composition for prevention and treatment of bacterial infectious diseases” (Kyoto Pharmaceutical Industries, Ltd., priority 1987, dated 1989).

≈ marks a conversion by molar mass, not a printed value. Counter-ions that a name gives are not always drawn.

The subject of series [1] is Staphylococcus aureus Smith. Put plainly: Antibacterial activity test, minimum inhibitory concentration. It is filed as cell-based.
In series [2] the test system is Escherichia coli NIH. The description is as above. It counts as cell-based.
A short description of series [3]: Acute toxicity test, oral administration. The settings on record: mouse, in vivo, male ICR mice, 5 weeks in age, n = 3, orally administered as aqueous solution in distilled water, read-out: LDso value. The protocol: The acute toxicity of the orally administered cephalosporin derivative of this invention in mice was determined. The test is summarized as follows:
Subject animals: Male mice (ICR, at 5 weeks in age), n = 3
Method of administration: The cephalosporin derivative as obtained in Example 3 below was dissolved in distilled water, and this aqueous solution was orally administered.

`N[C@@H](C(=O)N[C@@H]1C(=O)N2C(C(=O)O)=C(Cl)CS[C@H]12)c1ccccc1` [Cefaclor, cefaclor, reference compound]: the MIC amounted to 1.56 µg/mL (≈ 4.24 µM) in series [1] and 0.78 µg/mL (≈ 2.12 µM) in series [2].
Take `O=C(O)C1=C(CSc2ncns2)CS[C@@H]2[C@H](NC(=O)[C@H](O)c3ccccc3)C(=O)N12` [Example 1, 7-D-(-)Mandelamido-3-(1,2,4-thiadiazol-5-yl)thiomethyl-3-cephem-4-carboxylic acid]: the minimum inhibitory concentration (MIC) amounted to 0.2 µg/mL (≈ 0.431 µM) in series [1] and 0.39 µg/mL (≈ 0.84 µM) in series [2].
Consider `C[C@H](N)C(=O)O[C@@H](C(=O)N[C@@H]1C(=O)N2C(C(=O)OCOC(=O)C(C)(C)C)=C(CSc3ncns3)CS[C@H]12)c1ccccc1` [Example 3, Pivaloyloxymethyl 7-[D-O-(L-alanyl)mandelamido]-3-[(1,2,4-thiadiazol-5-yl)thiomethyl]-3-cephem-4-carboxylate hydrochloride], for which the LD50 in series [3] is under 5000 mg/kg.
